What was measured:
GPX1 = biological target: T1, GPX1 (Homo sapiens, UniProt P07203); assay: nanoDSF thermal stabilization, GPX1; type: binding
T1 construct: made in house; host or cells: E. coli
T1 sequence (P07203 1-203): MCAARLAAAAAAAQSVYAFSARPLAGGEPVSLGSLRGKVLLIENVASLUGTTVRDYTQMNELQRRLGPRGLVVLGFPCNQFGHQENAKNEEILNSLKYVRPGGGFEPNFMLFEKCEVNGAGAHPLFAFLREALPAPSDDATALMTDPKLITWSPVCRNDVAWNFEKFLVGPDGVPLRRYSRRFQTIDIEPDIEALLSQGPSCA
Description: Thermal stabilization of enzyme ± DMSO or ± compound was carried out in a Prometheus NT.48 instrument (NanoTemper Technologies) with an excitation wavelength of 280 nm. Intrinsic fluorescence at 330 nm and 350 nm was monitored while heating. Capillaries were filled with ∼10 μL of a solution of GPX1/4 (1 mg/mL), ± small molecule (100 μM) or DMSO, in TES buffer and placed into the instrument. The capillaries were subjected to a temperature range from 30 to 90 °C at a ramp rate of 2 °C/min. The ratio of the recorded emission intensities (350nm/330 nm) were plotted as a function of temperature. This ratio and first derivatives were calculated using the NanoTemper software and were plotted using GraphPad Prism.

GPX4 = biological target: T2, GPX4 (Homo sapiens, UniProt P36969); assay: GR-coupled GPX4 activity assay (NADPH fluorescence, CHP substrate); type: biochemical; details: Fig. 9 pan-selenoprotein inhibitors
T2 construct: made in house; host or cells: E. coli
T2 sequence (P36969 1-170 isoform P36969-2): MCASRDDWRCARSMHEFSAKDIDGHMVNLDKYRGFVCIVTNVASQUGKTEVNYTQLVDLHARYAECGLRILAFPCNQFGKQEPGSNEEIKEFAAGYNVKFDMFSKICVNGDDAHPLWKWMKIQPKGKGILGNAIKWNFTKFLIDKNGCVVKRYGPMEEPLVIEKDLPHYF

[1] = biological target: T3, GR (glutathione reductase) (Homo sapiens, UniProt P00390); assay: GR counter-assay; type: biochemical; details: Fig. 9 pan-selenoprotein inhibitors
T3 construct: made in house
T3 sequence (P00390 44-522): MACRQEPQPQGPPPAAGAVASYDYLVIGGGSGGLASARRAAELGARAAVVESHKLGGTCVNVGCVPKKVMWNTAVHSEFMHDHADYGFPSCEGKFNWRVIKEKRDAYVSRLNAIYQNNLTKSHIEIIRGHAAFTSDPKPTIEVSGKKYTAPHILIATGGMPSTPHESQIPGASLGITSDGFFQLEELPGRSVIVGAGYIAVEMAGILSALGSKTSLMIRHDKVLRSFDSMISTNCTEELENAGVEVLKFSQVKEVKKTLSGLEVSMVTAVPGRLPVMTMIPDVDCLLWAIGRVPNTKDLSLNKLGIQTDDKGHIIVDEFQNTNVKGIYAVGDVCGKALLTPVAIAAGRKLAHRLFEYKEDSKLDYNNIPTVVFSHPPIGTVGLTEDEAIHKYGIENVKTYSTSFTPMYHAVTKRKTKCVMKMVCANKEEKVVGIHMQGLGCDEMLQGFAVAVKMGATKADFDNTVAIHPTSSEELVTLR
Description: The compound plates were prepared as described previously. Purified recombinant human GPX1, GPX2, GPX4, GR, and TXNRD1 were produced and purified as previously reported [[48], [49], [50]]. As production of GPX2 was not optimized at the onset of screening, only GPX1 and GPX4 underwent library screening, and GPX2 was used as a follow-up.
Follow-up and orthogonal assays were run in quadruplicate unless otherwise stated. Assay schemes are illustrated in Fig. 1.
To identify false positive compounds that interfere with the primary assay through inhibition of GR, ‘hits’ from the primary screening were run against a GR counter assay to identify this possible off-target inhibition (Fig. 1C). Briefly, 3 μL enzyme mixture (100 nM GR, 0.01% BSA in TES buffer) was dispensed into columns […] of a 1536-well black medium-binding solid-bottom plates. The no-enzyme control (0.01% BSA in TES buffer) was included in column 1 and 2. Compounds and controls (23 nL) were added to each well with a pin tool (Kalypsys), and the plates were incubated for 30 min before 2 μL of substrate mixture (1 mM GSSG 0.4 mM NADPH in TES buffer) was added to each well and absorbance at 340 nm was measured at t = 0 and t = 20 min using a ViewLux Multimodal detector (PerkinElmer).
Percent activity was determined by first calculating delta RFU (decrease in fluorescence between t = 0 and t = 20/30 min in primary GPX, GR counter-screen, and TXNRD1 assays, or increase in fluorescence between t = 0 and t = 20 min in the Monobromobimane GPX endpoint assay), and normalizing enzyme activity using median delta RFU values for DMSO-treated enzyme control, and DMSO-treated no-enzyme controls.
Compound inhibitory activity in the qHTS assays was determined by plotting dose-response data for each sample and fitting with a four-parameter logistic fit to assess IC50 values, efficacy (maximal response), and AUC (area under the curve), as previously described. Hits were classified by the quality of the concentration-response curves (CRC). Curve classes −1.1 and −1.2 being the highest-confidence actives with complete CRCs and classes −2.1 and −2.2 being lower-confidence actives with incomplete CRCs.

Row | Structure (SMILES) | GSH Binding (ΔTm) GPx1; shift in nanoDSF melting temperature (GPX1; 100 μM small molecule vs DMSO control, first or only inflection point) | thermal stabilization of GPX1 (GPX1; nanoDSF) | inhibition of GPX4 (GPX4) | inhibition of GPX4 (GPX4; listed as 2,3-dimercaptopropanesulfonic acid) | inhibition of GR [1]
1 | CC(=O)OC[C@H]1O[C@@H]([S-])[C@H](OC(C)=O)[C@@H](OC(C)=O)[C@@H]1OC(C)=O.CCP(CC)CC.[Au+] [Auranofin] | +8.3 °C | significant shifts in the melting temperature of GPX1 | – | – | –
2 | O=S(=O)(O)CC(S)CS (centres unmarked) [2,3-dimercaptopropanesulfonate] | – | – | inhibited all tested selenoproteins | inhibited all selenoproteins | not GR

Source: publication PMC10220285, “Development of an assay pipeline for the discovery of novel small molecule inhibitors of human glutathione peroxidases GPX1 and GPX4” (Redox Biology, 2023)
